Laboratory results taken from PubChem BioAssay AID256 (DTP/NCI, 2004).
“And” between values parts separate entries of the source, which are not always exact repeats. Equal values may be shown once. Toxic doses and inconclusive results are not listed. How the source made its calls: active means survival T/C of 150% or more; inactive means T/C below 125% in these data.

System: CD2F1 mice, L1210 leukemia ip, survival T/C
Assay: NCI In Vivo Anticancer Drug Screen. Data for tumor model L1210 Leukemia (intraperitoneal) in CD2F1 (CDF1) mice
Conditions: higher = longer survival
In short: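 Transplantable tumor in mice; compound-treated vs vehicle-treated groups. Read-out = treated/control ratio of the measured endpoint.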

[1] = endpoint: mean survival time, dose: 50.0 mg/kg/injection, schedule: Q01DX009 (ip), vehicle: saline with Tween-80
[2] = endpoint: mean survival time, dose: 100.0 mg/kg/injection, schedule: Q01DX009 (ip), vehicle: saline with Tween-80
[3] = endpoint: mean survival time, dose: 200.0 mg/kg/injection, schedule: Q01DX009 (ip), vehicle: saline with Tween-80
[4] = endpoint: mean survival time, dose: 100.0 mg/kg/injection, schedule: Q04DX003 (ip), vehicle: saline with Tween-80
[5] = endpoint: mean survival time, dose: 200.0 mg/kg/injection, schedule: Q04DX003 (ip), vehicle: saline with Tween-80
[6] = endpoint: mean survival time, dose: 400.0 mg/kg/injection, schedule: Q04DX003 (ip), vehicle: saline with Tween-80
[7] = endpoint: mean survival time, dose: 100.0 mg/kg/injection, schedule: Q04DX003 (ip), vehicle: saline
[8] = endpoint: mean survival time, dose: 200.0 mg/kg/injection, schedule: Q04DX003 (ip), vehicle: saline
[9] = endpoint: mean survival time, dose: 400.0 mg/kg/injection, schedule: Q04DX003 (ip), vehicle: saline

Measured: T/C

N#CCS(=O)(=O)c1cccc[n+]1[O-]
inactive: endpoint: median survival time, dose: 25.0 mg/kg/injection, schedule: Q01DX009 (ip), vehicle: saline with Tween-80 97 % of control | endpoint: median survival time, dose: 50.0 mg/kg/injection, schedule: Q01DX009 (ip), vehicle: saline with Tween-80 98 % of control | endpoint: median survival time, dose: 100.0 mg/kg/injection, schedule: Q01DX009 (ip), vehicle: saline with Tween-80 98 % of control | endpoint: median survival time, dose: 200.0 mg/kg/injection, schedule: Q01DX009 (ip), vehicle: saline with Tween-80 107 % of control | endpoint: median survival time, dose: 400.0 mg/kg/injection, schedule: Q01DX009 (ip), vehicle: saline with Tween-80 116 % of control

O=C(c1ccccc1)c1ccc([N+](=O)[O-])cc1
inactive: endpoint: mean survival time, dose: 100.0 mg/kg/injection, schedule: Q04DX003 (ip), vehicle: saline sonified 92 % of control | endpoint: mean survival time, dose: 200.0 mg/kg/injection, schedule: Q04DX003 (ip), vehicle: saline sonified 95 % of control | endpoint: mean survival time, dose: 400.0 mg/kg/injection, schedule: Q04DX003 (ip), vehicle: saline sonified 100 % of control

Nc1ccn(C2OC(CO)C3[O][Sn]([c]4ccccc4)([c]4ccccc4)[O]C32)c(=O)n1 (stereo not given)
inactive: endpoint: mean survival time, dose: 1.56 mg/kg/injection, schedule: Q01DX005 (ip), vehicle: other 100 % of control | endpoint: mean survival time, dose: 3.13 mg/kg/injection, schedule: Q01DX005 (ip), vehicle: other 94 % of control | endpoint: mean survival time, dose: 6.25 mg/kg/injection, schedule: Q01DX005 (ip), vehicle: other 100 % of control | endpoint: mean survival time, dose: 12.5 mg/kg/injection, schedule: Q01DX005 (ip), vehicle: other 94 % of control and 104 % of control

O=C(CNC(=O)Nc1cccc(C(F)(F)F)c1)N/N=C/c1cccc([N+](=O)[O-])c1
inactive: [1] 96 % of control | [2] 88 % of control | [3] 92 % of control

O=C(NCCBr)Nc1ccccc1
inactive: endpoint: mean survival time, dose: 12.5 mg/kg/injection, schedule: Q04DX002 (ip), vehicle: Klucel (hydroxypropylcellulose) (HPC) 92 % of control | endpoint: mean survival time, dose: 25.0 mg/kg/injection, schedule: Q04DX002 (ip), vehicle: Klucel (hydroxypropylcellulose) (HPC) 92 % of control | endpoint: mean survival time, dose: 50.0 mg/kg/injection, schedule: Q04DX002 (ip), vehicle: Klucel (hydroxypropylcellulose) (HPC) 96 % of control

CC1(C)CC(=O)C2(C)CCC(=O)C=C2C1 (stereo not given)
inactive: [4] 101 % of control | [5] 100 % of control | [6] 100 % of control

CCCCCCCCCCCCCCCCNCC(O)CN (stereo not given)
inactive: endpoint: mean survival time, dose: 12.5 mg/kg/injection, schedule: Q04DX002 (ip), vehicle: saline 95 % of control | endpoint: mean survival time, dose: 25.0 mg/kg/injection, schedule: Q04DX002 (ip), vehicle: saline 106 % of control | endpoint: mean survival time, dose: 50.0 mg/kg/injection, schedule: Q04DX002 (ip), vehicle: saline 103 % of control

O=C(CC(O)(C(F)(F)F)C(F)(F)F)c1cccc(Cl)c1
inactive: [2] 107 % of control | [4] 105 % of control | [3] 103 % of control | [5] 105 % of control | endpoint: mean survival time, dose: 400.0 mg/kg/injection, schedule: Q01DX009 (ip), vehicle: saline with Tween-80 119 % of control | [6] 110 % of control

CC1NC(=O)OC1(C)c1ccccc1 (stereo not given)
inactive: endpoint: mean survival time, dose: 100.0 mg/kg/injection, schedule: Q04DX002 (ip), vehicle: saline with Tween-80 103 % of control | endpoint: mean survival time, dose: 200.0 mg/kg/injection, schedule: Q04DX002 (ip), vehicle: saline with Tween-80 98 % of control

CC(=O)NC(CO)C1C(CO)OC(n2ccc(=O)[nH]c2=O)C1O (stereo not given)
inactive: endpoint: mean survival time, dose: 6.25 mg/kg/injection, schedule: Q01DX005 (ip), vehicle: water 101 % of control | endpoint: mean survival time, dose: 12.5 mg/kg/injection, schedule: Q01DX005 (ip), vehicle: water 101 % of control | endpoint: mean survival time, dose: 25.0 mg/kg/injection, schedule: Q01DX005 (ip), vehicle: water 98 % of control | endpoint: mean survival time, dose: 50.0 mg/kg/injection, schedule: Q01DX005 (ip), vehicle: water 103 % of control | endpoint: mean survival time, dose: 100.0 mg/kg/injection, schedule: Q01DX005 (ip), vehicle: water 96 % of control

O=C(OCC1OC(n2nc(SCc3ccccc3)c(=O)[nH]c2=O)C(OC(=O)c2ccccc2)C1OC(=O)c1ccccc1)c1ccccc1 (stereo not given)
inactive: endpoint: mean survival time, dose: 12.5 mg/kg/injection, schedule: Q01DX005 (ip), vehicle: distilled water + Tween-80 93 % of control | endpoint: mean survival time, dose: 25.0 mg/kg/injection, schedule: Q01DX005 (ip), vehicle: distilled water + Tween-80 95 % of control | endpoint: mean survival time, dose: 50.0 mg/kg/injection, schedule: Q01DX005 (ip), vehicle: distilled water + Tween-80 97 % of control | endpoint: mean survival time, dose: 100.0 mg/kg/injection, schedule: Q01DX005 (ip), vehicle: distilled water + Tween-80 88 % of control

Nc1nc(N)c2nc(CCSc3ccc(C(=O)NC(CCC(=O)O)C(=O)O)cc3)cnc2n1 (stereo not given)
inactive: endpoint: mean survival time, dose: 0.38 mg/kg/injection, schedule: Q01DX009 (ip), vehicle: sodium bicarbonate 96 % of control | endpoint: mean survival time, dose: 0.75 mg/kg/injection, schedule: Q01DX009 (ip), vehicle: sodium bicarbonate 100 % of control | endpoint: mean survival time, dose: 1.5 mg/kg/injection, schedule: Q01DX009 (ip), vehicle: sodium bicarbonate 104 % of control | endpoint: mean survival time, dose: 3.0 mg/kg/injection, schedule: Q01DX009 (ip), vehicle: sodium bicarbonate 95 % of control | endpoint: mean survival time, dose: 6.0 mg/kg/injection, schedule: Q01DX009 (ip), vehicle: sodium bicarbonate 91 % of control | endpoint: mean survival time, dose: 12.0 mg/kg/injection, schedule: Q01DX009 (ip), vehicle: sodium bicarbonate 93 % of control | endpoint: mean survival time, dose: 24.0 mg/kg/injection, schedule: Q01DX009 (ip), vehicle: sodium bicarbonate 102 % of control | endpoint: mean survival time, dose: 48.0 mg/kg/injection, schedule: Q01DX009 (ip), vehicle: sodium bicarbonate 106 % of control

CC(=O)Nc1nnc(Cl)s1
inactive: endpoint: mean survival time, dose: 100.0 mg/kg/injection, schedule: Q04DX002 (ip), vehicle: saline 101 % of control | endpoint: mean survival time, dose: 200.0 mg/kg/injection, schedule: Q04DX002 (ip), vehicle: saline 97 % of control | endpoint: mean survival time, dose: 400.0 mg/kg/injection, schedule: Q04DX002 (ip), vehicle: saline 104 % of control

Nc1ccc(Cl)cc1C(=O)c1ccc[nH]1
inactive: endpoint: mean survival time, dose: 100.0 mg/kg/injection, schedule: Q01DX001 (ip), vehicle: saline 101 % of control | [7] 94 % of control | endpoint: mean survival time, dose: 200.0 mg/kg/injection, schedule: Q01DX001 (ip), vehicle: saline 98 % of control | [8] 94 % of control | endpoint: mean survival time, dose: 400.0 mg/kg/injection, schedule: Q01DX001 (ip), vehicle: saline 93 % of control | [9] 94 % of control

CCOC1CC2c3ccccc3C1c1cccc[n+]12 (stereo not given)
inactive: [7] 104 % of control

O=C(NC(CSC(c1ccc(Cl)cc1)c1ccc(Cl)cc1)C(=O)O)OCc1ccccc1 (stereo not given)
inactive: endpoint: mean survival time, dose: 75.0 mg/kg/injection, schedule: Q01DX001 (ip), vehicle: saline 91 % of control | endpoint: mean survival time, dose: 300.0 mg/kg/injection, schedule: Q01DX001 (ip), vehicle: saline 97 % of control

O=C(O)c1ccccc1C(=O)c1ccc(CBr)cc1
inactive: endpoint: mean survival time, dose: 6.25 mg/kg/injection, schedule: Q04DX003 (ip), vehicle: saline with Tween-80 93 % of control | endpoint: mean survival time, dose: 12.5 mg/kg/injection, schedule: Q04DX003 (ip), vehicle: saline with Tween-80 101 % of control | endpoint: mean survival time, dose: 25.0 mg/kg/injection, schedule: Q04DX003 (ip), vehicle: saline with Tween-80 101 % of control

CCN(CC)N1C(=O)[N+](CC)(CC)N=C1[O-]
inactive: [7] 102 % of control | [8] 95 % of control | [9] 101 % of control

CCCCCCCCC[n+]1cccc(C(N)=O)c1
inactive: endpoint: mean survival time, dose: 25.0 mg/kg/injection, schedule: Q01DX009 (ip), vehicle: saline with Tween-80 97 % of control | [1] 101 % of control | [2] 95 % of control
